Measurements from patent publication US6589985B2, “Carbamate compounds for use in preventing or treating movement disorders” (Ortho-McNeil Pharmaceutical, Inc., priority 2001, dated 2003).

Legend:
essential tremor [1] = settings: open-label report, essential tremor patients; cited from earlier work
essential tremor [2] = settings: nine patients with essential tremor; cited from earlier work
harmaline-induced tremor = test: Harmaline-induced tremors in rats; type: in vivo, Sprague-Dawley rats; settings: for Tremor Score Median: harmaline 6 mg/kg i.p. 60 min later, observed 30 min, vehicle median 6.00, p<0.01 vs vehicle
From the text: Harmaline-induced tremor in rats is a commonly accepted animal model that is predictive of essential tremor and related movement disorders in human (Miwa H, et. al., Differential expression of c-Fos following administration of two tremorgenic agents: harmaline and oxotremorine, NeuroReport, 2000, 11 (11), 2385-2390; Stanford J A and Fowler S C, At low doses, harmaline increases forelimb tremor in the rat, Neurosci. Lett., 1998, 241 (1), 41-44; Sinton C M, The effectiveness of different isomers of octanol as blockers of harmaline-induced tremor, Pfluegers Arch., 1989, 414 (1), 31-6).
An enantiomer of Formula (Ib) was evaluated for efficacy in treating essential tremor and related movement disorders with doses up to 30 mg/kg. The enantiomer of Formula (Ib) or vehicle (0.5% hydroxypropyl methylcellulose) was administered orally by gavage in a dose volume equivalent to 5 mL/kg to Sprague-Dawley rats (135 to 275 g). Harmaline (6 mg/kg in volume of 5 mL/kg, i.p.) was administered 60 min thereafter. Immediately after the harmaline administration, rats were placed individually in a blinded fashion in plastic cages on wood-chip bedding and observed for 30 minutes. Appearance of tremors was scored using a nine-item checklist. The checklist includes scoring for: tremors at rest, tremors during locomotion, intermittent tremors, continuous tremors, tremors provoked by tail-restraint, generalized tremors (head, body and tail), tremors of the head only, tremors of the body only and tremors of the tail only. Signs observed in rats treated with vehicle or test compound are compared by ranking tremor quality and severity.
Tremor provoked following tail-restraint was assigned a score =1. Tremors that appear continuously were assigned a score =2, while tremors that appear intermittently were assigned a score =1. The appearance of generalized tremors were assigned a score =2, while a score =1 was assigned to tremor that involves only the head, body or tail of the rat. The severity of tremor is scored subjectively as mild in intensity or as moderate or marked. […]

## NCC1(CC(=O)O)CCCCC1 [gabapentin, Gabapentin]
Essential tremor [1]
  effect on tremor: reduced tremor in five patients

## CC1(C)O[C@@H]2[C@@H](CO[C@@]3(COS(N)(=O)=O)OC(C)(C)O[C@@H]23)O1 [Topiramate]
Essential tremor [2]
  patient self-rating after topiramate therapy: Eight patients rated themselves as better and with less disability

## NC(=O)OC[C@@H](O)c1ccccc1Cl [Formula (Ib)]
harmaline-induced tremor; 20 mg/kg p.o.
  Tremor Score Median: 2.00
harmaline-induced tremor; 30 mg/kg p.o.
  Tremor Score Median: 1.20
harmaline-induced tremor; Kruskal-Wallis nonparametric one-way method, rats, p.o.
  reduction in the tremor score in drug-treated groups compared to the vehicle-treated group: significant
